Laboratory results: patent US9708628B2, “Cationic lipid having improved intracellular kinetics” (NOF CORPORATION, priority 2011, dated 2017)

Assay: Particle size and surface potential of siRNA MENDs prepared by t-BuOH injecting method
Format: physicochemical
Conditions: siRNA MEND
Protocol: A lipid solution in t-BuOH with a composition of cationic lipid/cholesterol=70/30, DMG-PEG2000 3% and a total lipid amount of 3000 nmol/400 μL (7.5 mM) was prepared in a 1.7 mL tube. In a separate 1.7 mL tube, an siRNA solution was prepared by mixing an siRNA aqueous solution containing siRNA (160 μg) and 20 mM malate buffer (pH 4.00, 30 mM NaCl) to total 50 μL. With vigorous stirring of the lipid solution, the siRNA solution was gradually added dropwise, and the mixed solution was taken in a 1 mL syringe. Then, 20 mM malate buffer (pH 4.00, 30 mM NaCl, 2 mL) was added into a 5 mL tube, and the mixed solution was gradually injected with vigorous stirring. Thereafter, the mixture was further diluted with PBS (7 mL) and centrifuged at 1000 g, 30° C. for 10 min in Amicon Ultra-15-100K to a volume of less than 1.5 mL. PBS (15 mL) was added, and the solution was centrifuged again to about 500-1000 μL. Finally, the MEND solution was adjusted by diluting with PBS to the object lipid concentration.
The particle size and surface potential of various MENDs were measured according to the method described in [Experimental Example 2] and the results are shown in Table 6.

Row | charge at physiological pH | Structure (SMILES)
1 | weak positive charge | Cc1c(C)c2c(c(C)c1OC(=O)CCC(=O)NCCCN(C)CCSSCCN(C)CCCNC(=O)CCC(=O)Oc1c(C)c(C)c3c(c1C)CCC(C)(CCCC(C)CCCC(C)CCCC(C)C)O3)CCC(C)(CCCC(C)CCCC(C)CCCC(C)C)O2 (stereo not shown) [TSamide-C3M]

Same assay, conditions: siRNA MEND, cationic lipid/cholesterol=70/30, DMG-PEG2000 3%

Row | PDI | size (nm) | zeta (mV) | Structure (SMILES)
2 | 0.13 | 120 | −13.0 | Cc1c(C)c2c(c(C)c1OC(=O)CCCC(=O)OCCCN(C)CCSSCCN(C)CCCOC(=O)CCCC(=O)Oc1c(C)c(C)c3c(c1C)CCC(C)(CCCC(C)CCCC(C)CCCC(C)C)O3)CCC(C)(CCCC(C)CCCC(C)CCCC(C)C)O2 (stereo not shown) [TG-C3M]
3 | 0.07 | 118 | −9.8 | CCN(CCCCOC(=O)CCC(=O)Oc1c(C)c(C)c2c(c1C)CCC(C)(CCCC(C)CCCC(C)CCCC(C)C)O2)CCSSCCN(CC)CCCCOC(=O)CCC(=O)Oc1c(C)c(C)c2c(c1C)CCC(C)(CCCC(C)CCCC(C)CCCC(C)C)O2 (stereo not shown) [TS-C4E]
4 | 0.13 | 125 | −6.4 | Cc1c(C)c2c(c(C)c1OC(=O)CCC(=O)OCCCCCN(CCSSCCN(CCCCCOC(=O)CCC(=O)Oc1c(C)c(C)c3c(c1C)CCC(C)(CCCC(C)CCCC(C)CCCC(C)C)O3)C(C)C)C(C)C)CCC(C)(CCCC(C)CCCC(C)CCCC(C)C)O2 (stereo not shown) [TS-C5P]
5 | 0.12 | 114 | −12.2 | Cc1c(C)c2c(c(C)c1OC(=O)CCC(=O)OCC1CCCCN1CCSSCCN1CCCCC1COC(=O)CCC(=O)Oc1c(C)c(C)c3c(c1C)CCC(C)(CCCC(C)CCCC(C)CCCC(C)C)O3)CCC(C)(CCCC(C)CCCC(C)CCCC(C)C)O2 (stereo not shown) [TS-P2C1]
6 | 0.13 | 118 | −9.8 | Cc1c(C)c2c(c(C)c1OC(=O)CCC(=O)OCC1CCCN(CCSSCCN3CCCC(COC(=O)CCC(=O)Oc4c(C)c(C)c5c(c4C)CCC(C)(CCCC(C)CCCC(C)CCCC(C)C)O5)C3)C1)CCC(C)(CCCC(C)CCCC(C)CCCC(C)C)O2 (stereo not shown) [TS-P3C1]
7 | 0.21 | 93 | 7.0 | Cc1c(C)c2c(c(C)c1OC(=O)CCC(=O)NCCCN(C)CCSSCCN(C)CCCNC(=O)CCC(=O)Oc1c(C)c(C)c3c(c1C)CCC(C)(CCCC(C)CCCC(C)CCCC(C)C)O3)CCC(C)(CCCC(C)CCCC(C)CCCC(C)C)O2 (stereo not shown) [TSamide-C3M]
